Measurements: US20260199323A1, “LIGAND COMPOUNDS FOR E3 UBIQUITIN LIGASE, PROTEIN DEGRADERS DEVELOPED ON BASIS OF LIGAND COMPOUNDS, AND USES THEREOF” (GLUETACS THERAPEUTICS (SHANGHAI) CO., LTD., priority 2021, published 2026)
Like-named read-outs stand apart in the source and are kept apart here.

Experiments:
[1] = tested on: Mino; assay: CCK-8 tumor cell proliferation, Mino; type: cell-based, Human; details: for IC50: Homo sapiens, Table 18, FAK inhibitor based, Mino, read-out: IC50 inhibiting proliferation of tumor cells, Mino
Method: (§1) The tumor cells used herein were cultured in a cell culture medium listed in table 4 at 37° C. in an incubator with 5% CO2. Prior to experimentation, all cells used were correctly identified by STR profiling, and tested negative for mycoplasma through routine screenings.
(§2) IC50 values of the compounds of the present disclosure (including the compounds in Tables 1 and 3, and compounds of examples) were measured using the Meilun Cell Counting Kit-8 kit from Dalian Meilun Biotech Co., Ltd. Assay details are as follows: tumor cells were seeded in a 96-well plate at a density listed in Table 5. After 24 h, 100 μL of the inoculated cells were treated with 0.5 μL of the compounds of the present disclosure (including the compounds in Tables 1 and 3, and compounds of examples) at 10 different successively decreasing concentrations (starting at the highest concentration of 10 μM; 5-fold serial dilutions). After the cells were treated with the compounds of the present disclosure for a period of time, the cell viability detection reagent was added to the culture medium for cell viability assessment according to the instructions provided with the CCK-8 kit. […] The growth inhibition of the compounds of the present disclosure on cells was plotted by Prism Graphpad software, and the IC50 values of the compounds of the present disclosure were calculated therefrom.

[2] = tested on: SW620; assay: CCK-8 tumor cell proliferation, SW620; type: cell-based, Human; details: for IC50: Homo sapiens, SW-620, Table 18, FAK inhibitor based, SW620, read-out: IC50 inhibiting proliferation of tumor cells, SW620
Method: as §1, §2

[3] = tested on: PC-9; assay: CCK-8 tumor cell proliferation, PC-9; type: cell-based, Human; details: for IC50: Homo sapiens, PC-9, read-out: IC50 inhibiting proliferation of tumor cells, PC-9; for IC50 for inhibiting the proliferation of tumor cells, PC-9: Table 11, designed based on EGFR inhibitors, 96 h
Method: The tumor cells used herein were cultured in a cell culture medium listed in table 4 at 37° C. in an incubator with 5% CO2.
as §2, with “After” for “IC50 values of the compounds of the present disclosure (including the compounds in Tables 1 and 3, and compounds of examples) were measured using the Meilun Cell Counting Kit-8 kit from Dalian Meilun Biotech Co., Ltd. Assay details are as follows: tumor cells were seeded in a 96-well plate at a density listed in Table 5. After”

[4] = tested on: SR; assay: CCK-8 tumor cell proliferation, SR; type: cell-based, Human; details: for IC50: Homo sapiens, SR, read-out: IC50 inhibiting proliferation of tumor cells, SR
Method: as §1, §2

[5] = tested on: MDA-MB-231; assay: CCK-8 tumor cell proliferation, MDA-MB-231; type: cell-based, Human; design: IC50 for inhibiting the proliferation of tumor cells, MDA-MB-231: scale not given here; details: for IC50: Homo sapiens, MDA-MB-231, read-out: IC50 inhibiting proliferation of tumor cells, MDA-MB-231
Method: as §1, §2

[6] = tested on: MM.1S; assay: CCK-8 tumor cell proliferation, MM.1S; type: cell-based
Method: as §1, §2

[7] = tested on: CCRF-CEM; assay: CCK-8 tumor cell proliferation, CCRF-CEM; type: cell-based, Human; design: IC50 for inhibiting the proliferation of tumor cells, CCRF-CEM: scale not given here; details: 96 h
Method: as §1, §2

[8] = tested on: CAL-62; assay: CCK-8 tumor cell proliferation, CAL-62; type: cell-based, Human; details: Homo sapiens; Table 18, FAK inhibitor based; CAL-62; read-out: IC50 inhibiting proliferation of tumor cells, CAL-62
Method: as §1, §2

SMILES: CNC(=O)c1ccc(Nc2ncc(C(F)(F)F)c(NCc3nccnc3N(C)S(C)(=O)=O)n2)cc1 [Defactinib, reference compound]
- IC50 [1]: 0.5 to 1 µM
- IC50 [2]: 1 to 5 µM
- IC50 ([3]; Table 18, FAK inhibitor based): 1 to 5 µM

SMILES: Cc1nc(Nc2ncc(C(=O)Nc3c(C)cccc3Cl)s2)cc(N2CCC(N3CCN(Cc4ccc5c(c4)CN(C4CCC(=O)NC4=O)C5=O)CC3)CC2)n1 (stereo not drawn) [GT-03476, N-(2-chloro-6-methylphenyl)-2-((6-(4-(4-((2-(2,6-dioxopiperidin-3-yl)-1-oxoisoindolin-5-yl)methyl)piperazin-1-yl)piperidin-1-yl)-2-methylpyrimidin-4-yl)amino)thiazole-5-carboxamide]
- IC50 for inhibiting the proliferation of tumor cells, Mino ([1]; Table 13, designed based on BCR-ABL inhibitors, 72 h): A+

SMILES: Cc1cc(Nc2ncc(Cl)c(Nc3ccccc3S(=O)(=O)C(C)C)n2)c(OC(C)C)cc1N1CCN(Cc2ccc3c(c2)CN(C2CCC(=O)NC2=O)C3=O)CC1 (stereo not drawn) [GT-03529, 3-(5-((4-(4-((5-chloro-4-((2-(isopropylsulfonyl)phenyl)amino)pyrimidin-2-yl)amino)-5-isopropoxy-2-methylphenyl)piperazin-1-yl)methyl)-1-oxoisoindolin-2-yl)piperidine-2,6-dione]
- IC50 ([4]; Table 15, ALK inhibitor based): < 0.05 µM
- IC50 ([5]; Table 15, ALK inhibitor based): 0.1 to 0.5 µM
- IC50 ([3]; Table 15, ALK inhibitor based): 0.1 to 0.5 µM

SMILES: Cc1cc(Nc2ncc(Cl)c(Nc3ccccc3S(=O)(=O)C(C)C)n2)c(OC(C)C)cc1N1CCC(N2CCN(Cc3ccc4c(c3)CN(C3CCC(=O)NC3=O)C4=O)CC2)CC1 (stereo not drawn) [GT-03531, 3-(5-((4-(1-(4-((5-chloro-4-((2-(isopropylsulfonyl)phenyl)amino)pyrimidin-2-yl)amino)-5-isopropoxy-2-methylphenyl)piperidin-4-yl)piperazin-1-yl)methyl)-1-oxoisoindolin-2-yl)piperidine-2,6-dione]
- IC50 ([4]; Table 15, ALK inhibitor based): < 0.05 µM
- IC50 ([5]; Table 15, ALK inhibitor based): 0.1 to 0.5 µM
- IC50 ([3]; Table 15, ALK inhibitor based): 1 to 5 µM

SMILES: Nc1ncnc2c1c(-c1ccc(Oc3ccccc3)cc1)nn2C1CCN(Cc2cc3c(cc2F)C(=O)N(C2CCC(=O)NC2=O)C3)CC1 (stereo not drawn) [GT-03605, 3-(5-((4-(4-amino-3-(4-phenoxyphenyl)-1H-pyrazolo[3,4-d]pyrimidin-1-yl)piperidin-1-yl)methyl)-6-fluoro-1-oxoisoindolin-2-yl)piperidine-2,6-dione]
- IC50 for inhibiting the proliferation of tumor cells, MM.1S ([6]; Table 7, designed based on BTK inhibitors, 72 h): A+
- IC50 for inhibiting the proliferation of tumor cells, CCRF-CEM ([7]; Table 7, designed based on BTK inhibitors): A+
- IC50 for inhibiting the proliferation of tumor cells, MDA-MB-231 ([5]; Table 7, designed based on BTK inhibitors, 96 h): A+

SMILES: CN(c1nccnc1CNc1nc(Nc2ccc(N3CCN(Cc4ccc5c(c4)CN(C4CCC(=O)NC4=O)C5=O)CC3)cc2)ncc1C(F)(F)F)S(C)(=O)=O (stereo not drawn) [GT-03672, N-(3-(((2-((4-(4-((2-(2,6-dioxopiperidin-3-yl)-1-oxoisoindolin-5-yl)methyl)piperazin-1-yl)phenyl)amino)-5-(trifluoromethyl)pyrimidin-4-yl)amino)methyl)pyrazin-2-yl)-N-methylmethanesulfonamide]
- IC50 ([4]; Table 18, FAK inhibitor based): 0.5 to 1 µM
- IC50 [8]: 0.5 to 1 µM
- IC50 [1]: 0.5 to 1 µM
- IC50 ([5]; Table 18, FAK inhibitor based): 0.5 to 1 µM
- IC50 [2]: 1 to 5 µM
- IC50 ([3]; Table 18, FAK inhibitor based): 1 to 5 µM

SMILES: CN(Cc1ccc2c(c1)CN(C1CCC(=O)NC1=O)C2=O)C1CCN(c2ccc(Nc3ncc4nc(Nc5ccccc5)n(C5CCCC5)c4n3)cc2)CC1 (stereo not drawn) [GT-03685, 3-(5-(((1-(4-((9-cyclopentyl-8-(phenylamino)-9H-purin-2-yl)amino)phenyl)piperidin-4-yl)(methyl)amino)methyl)-1-oxoisoindolin-2-yl)piperidine-2,6-dione]
- IC50 for inhibiting the proliferation of tumor cells, CCRF-CEM ([7]; Table 11, designed based on EGFR inhibitors): A+
- IC50 for inhibiting the proliferation of tumor cells, PC-9 [3]: A+

SMILES: CNC(=O)c1ccccc1Nc1cc(Nc2ccc(N3CCN(Cc4ccc5c(c4F)CN(C4CCC(=O)NC4=O)C5=O)CC3)cc2OC)ncc1C(F)(F)F (stereo not drawn) [GT-03712, 2-((2-((4-(4-((2-(2,6-dioxopiperidin-3-yl)-4-fluoro-1-oxoisoindolin-5-yl)methyl)piperazin-1-yl)-2-methoxyphenyl)amino)-5-(trifluoromethyl)pyridin-4-yl)amino)-N-methylbenzamide]
- IC50 [1]: 0.1 to 0.5 µM
- IC50 ([5]; Table 18, FAK inhibitor based): < 0.05 µM
- IC50 [2]: < 0.05 µM
- IC50 ([3]; Table 18, FAK inhibitor based): 1 to 5 µM

SMILES: Cc1nc2c(F)cc(-c3nc(Nc4ccc(N5CCC(N6CCN(Cc7ccc8c(c7)CN(C7CCC(=O)NC7=O)C8=O)CC6)CC5)cn4)ncc3F)cc2n1C(C)C (stereo not drawn) [GT-03719, 3-(5-((4-(1-(6-((5-fluoro-4-(4-fluoro-1-isopropyl-2-methyl-1H-benzo[d]imidazol-6-yl)pyrimidin-2-yl)amino)pyridin-3-yl)piperidin-4-yl)piperazin-1-yl)methyl)-1-oxoisoindolin-2-yl)piperidine-2,6-dione]
- IC50 for inhibiting the proliferation of tumor cells, CCRF-CEM ([7]; Table 14, designed based on CDK4/6 inhibitors): A+
- IC50 for inhibiting the proliferation of tumor cells, SR ([4]; Table 14, designed based on CDK4/6 inhibitors, 72 h): A+
- IC50 for inhibiting the proliferation of tumor cells, SW620 ([2]; Table 14, designed based on CDK4/6 inhibitors, 96 h): A+

SMILES: CNC(=O)c1ccccc1Nc1cc(Nc2ccc(N3CCC(N(C)Cc4ccc5c(c4F)CN(C4CCC(=O)NC4=O)C5=O)CC3)cc2OC)ncc1C(F)(F)F (stereo not drawn) [GT-03728, 2-((2-((4-(4-(((2-(2,6-dioxopiperidin-3-yl)-4-fluoro-1-oxoisoindolin-5-yl)methyl)(methyl)amino)piperidin-1-yl)-2-methoxyphenyl)amino)-5-(trifluoromethyl)pyridin-4-yl)amino)-N-methylbenzamide]
- IC50 ([4]; Table 18, FAK inhibitor based): < 0.05 µM
- IC50 [8]: 0.05 to 0.1 µM
- IC50 [1]: 1 to 5 µM
- IC50 ([5]; Table 18, FAK inhibitor based): < 0.05 µM
- IC50 [2]: 0.1 to 0.5 µM
- IC50 ([3]; Table 18, FAK inhibitor based): 1 to 5 µM

SMILES: CNC(=O)c1ccccc1Nc1cc(Nc2ccc(N3CCC(N(C)Cc4ccc5c(c4)C(=O)N(C4CCC(=O)NC4=O)C5=O)CC3)cc2OC)ncc1C(F)(F)F (stereo not drawn) [GT-03732, 2-((2-((4-(4-(((2-(2,6-dioxopiperidin-3-yl)-1,3-dioxoisoindolin-5-yl)methyl)(methyl)amino)piperidin-1-yl)-2-methoxyphenyl)amino)-5-(trifluoromethyl)pyridin-4-yl)amino)-N-methylbenzamide]
- IC50 ([4]; Table 18, FAK inhibitor based): 0.1 to 0.5 µM
- IC50 [2]: 1 to 5 µM
- IC50 ([3]; Table 18, FAK inhibitor based): 0.05 to 0.1 µM

SMILES: O=C1CCC(N2Cc3cc(CN4CCN(c5ccc(Nc6ncc7nc(Nc8ccccc8)n(C8CCCC8)c7n6)cc5)CC4)c(F)cc3C2=O)C(=O)N1 (stereo not drawn) [GT-03736, 3-(5-((4-(4-((9-cyclopentyl-8-(phenylamino)-9H-purin-2-yl)amino)phenyl)piperazin-1-yl)methyl)-6-fluoro-1-oxoisoindolin-2-yl)piperidine-2,6-dione]
- IC50 for inhibiting the proliferation of tumor cells, PC-9 [3]: A+

SMILES: CN(c1cccc(CNc2nc(Nc3ccc(C4CCN(Cc5ccc6c(c5)CN(C5CCC(=O)NC5=O)C6=O)CC4)cc3)ncc2C(F)(F)F)c1)S(C)(=O)=O (stereo not drawn) [GT-03742, N-(3-(((2-((4-(1-((2-(2,6-dioxopiperidin-3-yl)-1-oxoisoindolin-5-yl)methyl)piperidin-4-yl)phenyl)amino)-5-(trifluoromethyl)pyrimidin-4-yl)amino)methyl)phenyl)-N-methylmethanesulfonamide]
- IC50 ([6]; Homo sapiens, MM1.S, Table 18, FAK inhibitor based, MM.1S, read-out: IC50 inhibiting proliferation of tumor cells, MM.1S): 1 to 5 µM
- IC50 [8]: 1 to 5 µM
- IC50 ([5]; Table 18, FAK inhibitor based): 1 to 5 µM

SMILES: O=C1CCC(N2Cc3cc(CN4CCN(C5CCN(c6ccc(Nc7ncc8nc(Nc9ccccc9)n(C9CCCC9)c8n7)cc6)CC5)CC4)ccc3C2=O)C(=O)N1 (stereo not drawn) [GT-03808, 3-(5-((4-(1-(4-((9-cyclopentyl-8-(phenylamino)-9H-purin-2-yl)amino)phenyl)piperidin-4-yl)piperazin-1-yl)methyl)-1-oxoisoindolin-2-yl)piperidine-2,6-dione]
- IC50 for inhibiting the proliferation of tumor cells, PC-9 [3]: A+
